Laboratory results as given in patent US20080234331A1, “Synergistic Insecticidal Mixtures for the Treatment of Seed” (Bayer CropScience AG, priority 2005, published 2008).

System: Onions cv. Vaquero
Test: Onion yield after seed treatment with insecticidal active substances
Assay type: in vivo
Details: for Yield in % relative to the insecticide-untreated control 1: onion seed cv. Vaquero pretreated with thiram 2 g ai/kg and carbendazim 1 g ai/kg, seed treatment, total application rate 0.18 mg ai/seed (mixture 0.09 + 0.09); for growth-promoting effect with regard to the yield (in words): onion seed treatment, same total application rate
Method: Onions cv. Vaquero from the Dutch company Nunhems were pretreated uniformly with the fungicidal active substances thiram (2 g ai/kg) and carbendazim (1 g ai/kg) by customary methods. Thereafter, the seed was treated as follows, using insecticidal active substances: • 1. control, no insecticides • 2. Poncho WS 70 (clothianidin) at 0.18 mg ai/seed • 3. Gaucho WS 70 (imidacloprid) at 0.18 mg ai/seed • 4. clothianidin+imidacloprid at 0.09+0.09 mg ai/seed

SMILES | Yield in % relative to the insecticide-untreated control 1 [%] | growth-promoting effect with regard to the yield (in words)
CN/C(=N\[N+](=O)[O-])NCc1cnc(Cl)s1 [clothianidin] | 137 | growth-promoting effect
O=[N+]([O-])/N=C1\NCCN1Cc1ccc(Cl)nc1 [imidacloprid] | 109 | growth-promoting effect
